According to US7910750B2, “Artemisinin (qinghaosu) derivatives, their preparation methods and their use, and pharmaceutical compositions containing the same” (Shanghai Institute of Materia Medica, Chinese Academy of …, priority 2005, dated 2011):

How the values were obtained:
[1] = system: BALB/c mouse spleen cells; assay: Lymphocytotoxicity test (MTT); format: cell-based; conditions: mouse spleen cells, 48 hours, read-out: Lymphocytotoxicity CC50
Experimental: A. Lymphocytotoxicity Test
1. BALB/c mice were killed by cervical dislocation, and their spleens were removed aseptically. A single spleen cell suspension was prepared and cell debris and clumps were removed.
2. 80 μL cell suspension, 40 μL testing sample, 40 μL medium containing 10% FBS were added into 96 well plate; for the control group, 80 μL medium was added the total volume was 160 μL, and blank control group was set.
3. After incubated in 5% CO2 incubator at 37° C. for 48 hours, 16 μL MTT (5 mg/mL) reagent was added into each well 6-7 hours before the termination of the incubation.

[2] = system: T lymphocyte; assay: Lymphocyte proliferation test, T lymphocyte proliferation response induced by ConA ([3H]-thymidine); format: cell-based, mouse; conditions: mouse spleen cells, ConA, 48 hours; read-out: Inhibiting activity of T lymphocyte proliferation response induced by ConA IC50
Experimental: B. Lymphocyte Proliferation Test […] […] 3. After incubated in 5% CO2 incubator at 37° C. for 48 hours, 0.5 μCi [^3H]-thymidine (25 μL/well) was added into each well 7-8 hours before the termination of the incubation. 4.

[3] = system: B lymphocyte; assay: Lymphocyte proliferation test, B lymphocyte proliferation response induced by LPS ([3H]-thymidine); format: cell-based, mouse; conditions: mouse spleen cells, LPS, 48 hours; read-out: Inhibiting activity of B lymphocyte proliferation response induced by LPS IC50
Experimental: 3. After incubated in 5% CO2 incubator at 37° C. for 48 hours, 0.5 μCi [^3H]-thymidine (25 μL/well) was added into each well 7-8 hours before the termination of the incubation. 4.

| SMILES | CC50 [1] [µM] | IC50 [2] [µM] | IC50 [3] [µM] |
| --- | --- | --- | --- |
| COc1ccccc1OC(=O)C(C)Oc1cccc(OC2OC3OC4(C)CCC5C(C)CCC(C2C)C35OO4)c1 (stereo not drawn) [compound 30, o-methoxy-phenyl 2-[3-(12α-artemisininoxy)phenoxy] propionate] | 8.23 | 5.73 | 0.82 |
| COc1ccccc1OC(=O)C(C)Oc1cccc(OC2OC3OC4(C)CCC5C(C)CCC(C2C)C35OO4)c1 (stereo not drawn) [compound 27, o-methoxy-phenyl 2-[3-(12β-Artemisininoxy)phenoxy] propionate] | 2.99 | 4.12 | 0.57 |
| CCOC(=O)CNC(=O)c1ccc(OC2OC3OC4(C)CCC5C(C)CCC(C2C)C35OO4)cc1 (stereo not drawn) [compound 5, ethyl-[4-(12β-artemisininoxy)benzoyl] aminoacetate] | 39 | 2.53 | 0.16 |
| CC(Oc1cccc(OC2OC3OC4(C)CCC5C(C)CCC(C2C)C35OO4)c1)C(=O)O (stereo not drawn) [compound 29, 2-[3-(12α-artemisininoxy)phenoxy] propanoic acid] | 35.1 | 8.6 | 0.74 |
| CCOC(=O)C(C)Oc1cccc(OC2OC3OC4(C)CCC5C(C)CCC(C2C)C35OO4)c1 (stereo not drawn) [compound 28, ethyl 2-[3-(12α-artemisininoxy)phenoxy] propionate] | 2.99 | 3.59 | 0.56 |
| COc1ccccc1OC(=O)C(C)c1ccc(OC2OC3OC4(C)CCC5C(C)CCC(C2C)C35OO4)cc1 (stereo not drawn) [compound 23, o-methoxy-phenyl 2-[4-(12β-artemisininoxy)phenyl] propionate] | 5.33 | 0.527 | 0.0947 |
| CCOC(=O)C(C)Oc1ccc(OC2OC3OC4(C)CCC5C(C)CCC(C2C)C35OO4)cc1 (stereo not drawn) [compound 24, ethyl 2-[4-(12β-artemisininoxy)phenoxy] propionate] | 17.6 | 0.26 | 0.85 |
| CC(Oc1ccc(OC2OC3OC4(C)CCC5C(C)CCC(C2C)C35OO4)cc1)C(=O)O (stereo not drawn) [compound 25, 2-[4-(12β-artemisininoxy)phenoxy] propanoic acid] | 24.3 | 7.27 | 0.86 |
| COC(=O)C(C)c1ccc(OC2OC3OC4(C)CCC5C(C)CCC(C2C)C35OO4)cc1 (stereo not drawn) [compound 21, methyl 2-[4-(12β-artemisininoxy)phenyl] propionate] | 7.8 | 0.064 | 0.16 |
